Laboratory results from patent US12503438B2, “Compounds for the treatment of kinase-dependent disorders” (Exelixis, Inc., priority 2019, dated 2025).

Key:
KDR [1] = biological target: T1, KDR (Homo sapiens, UniProt P35968); assay: KDR autophosphorylation ELISA in HUVEC cells; format: cell-based; design: endogenous in cells; host or cells: HUVEC (Lonza #C2519A); details: cellular activity, VEGF165-stimulated, phospho-KDR ELISA
Outline: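 HUVEC, 24 h serum-free starvation; cpd 8-pt dilution, 0.3% DMSO final, 1 h; VEGF165 100 ng/mL, 5 min; cold lysis; phospho-KDR ELISA; IC50, 4PL.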
Target sequence in this assay (P35968 20-1356): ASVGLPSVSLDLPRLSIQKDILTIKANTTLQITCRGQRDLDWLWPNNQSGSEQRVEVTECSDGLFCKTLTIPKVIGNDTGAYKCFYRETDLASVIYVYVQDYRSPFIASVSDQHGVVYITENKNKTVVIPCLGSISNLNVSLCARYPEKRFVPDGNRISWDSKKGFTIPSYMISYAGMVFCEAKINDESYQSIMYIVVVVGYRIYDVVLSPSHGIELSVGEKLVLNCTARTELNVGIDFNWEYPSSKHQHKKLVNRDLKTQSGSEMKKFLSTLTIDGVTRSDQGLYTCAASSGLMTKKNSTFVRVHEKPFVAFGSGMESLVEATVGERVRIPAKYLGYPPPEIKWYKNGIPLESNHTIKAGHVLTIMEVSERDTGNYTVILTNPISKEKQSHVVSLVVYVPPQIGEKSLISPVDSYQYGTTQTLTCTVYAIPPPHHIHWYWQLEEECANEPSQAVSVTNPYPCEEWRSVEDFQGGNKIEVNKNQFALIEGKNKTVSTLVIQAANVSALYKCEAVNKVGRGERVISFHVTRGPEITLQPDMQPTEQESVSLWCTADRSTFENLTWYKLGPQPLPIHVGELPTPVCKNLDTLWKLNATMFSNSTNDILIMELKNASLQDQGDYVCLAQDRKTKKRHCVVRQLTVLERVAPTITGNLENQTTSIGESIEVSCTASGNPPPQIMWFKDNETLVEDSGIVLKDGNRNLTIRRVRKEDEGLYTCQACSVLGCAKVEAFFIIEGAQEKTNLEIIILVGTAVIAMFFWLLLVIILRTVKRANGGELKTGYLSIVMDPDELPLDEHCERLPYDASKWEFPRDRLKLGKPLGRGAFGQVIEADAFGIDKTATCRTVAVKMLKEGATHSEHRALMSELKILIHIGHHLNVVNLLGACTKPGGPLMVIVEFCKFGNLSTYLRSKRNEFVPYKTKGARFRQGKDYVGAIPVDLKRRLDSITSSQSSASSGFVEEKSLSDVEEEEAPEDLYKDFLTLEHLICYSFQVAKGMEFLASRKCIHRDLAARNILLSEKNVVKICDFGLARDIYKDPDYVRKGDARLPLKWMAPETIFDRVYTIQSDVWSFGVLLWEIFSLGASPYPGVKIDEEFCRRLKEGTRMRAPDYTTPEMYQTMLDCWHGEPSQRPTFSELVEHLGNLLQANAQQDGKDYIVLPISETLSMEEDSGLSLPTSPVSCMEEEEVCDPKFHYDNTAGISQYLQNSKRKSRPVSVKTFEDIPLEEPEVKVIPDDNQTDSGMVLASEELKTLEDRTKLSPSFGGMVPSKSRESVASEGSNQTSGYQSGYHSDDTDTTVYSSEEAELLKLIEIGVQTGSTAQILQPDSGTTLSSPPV

Met = Met (Homo sapiens, UniProt P08581); assay: Human Met kinase assay (33P-phosphoryl transfer radiometric, KinaseProfiler); design: Human Met (residues R974-S1390 with A1209G and V1290L, 3.4 nM); purchased Eurofins Pharma Discovery Services UK Limited (KinaseProfiler service); details: biochemical activity; 10 μM ATP; read-out: c-Met IC50
Met, sequence (P08581 974-1390): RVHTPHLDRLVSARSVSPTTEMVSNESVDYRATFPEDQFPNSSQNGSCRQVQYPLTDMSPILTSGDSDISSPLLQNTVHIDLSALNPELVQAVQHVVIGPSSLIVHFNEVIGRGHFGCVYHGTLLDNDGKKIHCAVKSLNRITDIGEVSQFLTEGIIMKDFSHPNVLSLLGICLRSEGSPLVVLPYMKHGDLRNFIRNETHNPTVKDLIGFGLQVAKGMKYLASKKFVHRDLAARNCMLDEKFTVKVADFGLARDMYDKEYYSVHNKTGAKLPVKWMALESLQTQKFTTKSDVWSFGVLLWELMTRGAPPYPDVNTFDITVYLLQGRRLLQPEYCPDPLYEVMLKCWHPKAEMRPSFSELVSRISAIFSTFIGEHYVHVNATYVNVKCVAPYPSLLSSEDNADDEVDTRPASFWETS
Procedure: (§1) Kinase activity and compound inhibition were investigated using the ^33P-Phosphoryl transfer radiometric kinase assay, performed using the KinaseProfiler™ service of Eurofins Pharma Discovery Services UK Limited. Dose-response experiments were performed using nine compound concentrations in a 96-well microtiter plate. For each assay, all compounds were prepared to a 50× final assay concentration (50 μM) in 100% DMSO, then diluted in a half-log series, with the final top concentration at 1 μM. This working stock of the compound was added to the assay well as the first component in the reaction, followed by the remaining components as detailed in the following assay protocols below. The positive control wells (100% kinase activity) contain all components of the reaction including 2% DMSO (control for solvent effects), except the compound of interest. Blank wells contain all components of the reaction, with the reference inhibitor, staurosporine. This reference compound was used to abolish kinase activity and generated the 0% kinase activity base-line. IC50 values were calculated by nonlinear regression analysis using the sigmoidal dose-response (variable slope) curve fit on XLFit version 5.3 (ID Business Solutions).
(§2) Human Met (residues R974-S1390 with A1209G and V1290L, 3.4 nM) was incubated with 8 mM MOPS pH 7.0, 0.2 mM EDTA, 250 μM KKKGQEEEYVFIE, 1 mM sodium orthovanadate, 5 mM sodium-6-glycerophosphate, 10 mM magnesium acetate, and 10 μM [γ-^33P-ATP]. The reaction was initiated by the addition of the Mg/ATP mix. After incubation for 40 minutes at room temperature, the reaction was stopped by the addition of phosphoric acid to a concentration of 0.5%. A reaction aliquot of 10 μL was then spotted onto a P30 filtermat and washed four times for 4 minutes in 0.425% phosphoric acid and once in methanol prior to drying and scintillation counting. Incorporated ^33P was measured using the Wallac Microbeta scintillation counter (Perkin Elmer).

KDR [2] = biological target: T1, KDR; assay: Human KDR kinase assay (33P-phosphoryl transfer radiometric, KinaseProfiler); design: Human KDR (residues K790-V1356, 55 nM); purchased Eurofins Pharma Discovery Services UK Limited (KinaseProfiler service); details: biochemical activity; 10 μM ATP
Procedure: as §1
as §2, with “KDR” for “Met”, “K790-V1356, 55” for “R974-S1390 with A1209G and V1290L, 3.4”, “0.33 mg/mL myelin basic protein,” for “250 μM KKKGQEEEYVFIE, 1 mM sodium orthovanadate, 5 mM sodium-6-glycerophosphate,”
Target sequence in this assay (P35968 790-1356): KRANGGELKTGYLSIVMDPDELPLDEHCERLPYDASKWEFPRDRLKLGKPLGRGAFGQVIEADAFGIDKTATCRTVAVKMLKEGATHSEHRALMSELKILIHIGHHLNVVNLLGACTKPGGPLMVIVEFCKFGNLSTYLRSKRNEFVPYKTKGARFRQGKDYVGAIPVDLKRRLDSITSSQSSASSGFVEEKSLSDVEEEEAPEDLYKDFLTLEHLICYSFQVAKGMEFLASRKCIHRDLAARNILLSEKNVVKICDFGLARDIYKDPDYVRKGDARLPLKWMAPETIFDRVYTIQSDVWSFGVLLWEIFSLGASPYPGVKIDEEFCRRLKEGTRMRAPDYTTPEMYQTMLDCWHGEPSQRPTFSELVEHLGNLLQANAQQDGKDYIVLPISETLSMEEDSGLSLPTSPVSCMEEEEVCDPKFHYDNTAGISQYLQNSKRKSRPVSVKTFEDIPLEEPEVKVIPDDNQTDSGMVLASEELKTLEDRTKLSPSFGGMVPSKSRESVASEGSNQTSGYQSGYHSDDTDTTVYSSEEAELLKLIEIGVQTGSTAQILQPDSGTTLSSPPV

Structure (SMILES) | IC50 (KDR [1]) | IC50 (Met) | IC50 (KDR [2])
O=C(Nc1ccc(F)cc1)C1(C(=O)Nc2ccc(Oc3ccnc4cc(-c5ccccn5)ccc34)cc2)CC1 [Compound 85, 1-N′-(4-Fluorophenyl)-1-N-[4-(7-pyridin-2-ylquinolin-4-yl)oxyphenyl]cyclopropane-1,1-dicarboxamide] | 10 to 100 nM | 10 to 100 nM | 10 to 100 nM
O=C(Nc1ccc(F)cc1)C1(C(=O)Nc2ccc(Oc3ccnc4cc(-c5nnco5)ccc34)cc2)CC1 [Compound 73, 1-N′-(4-Fluorophenyl)-1-N-[4-[7-(1,3,4-oxadiazol-2-yl)quinolin-4-yl]oxyphenyl]cyclopropane-1,1-dicarboxamide] | 10 to 100 nM | ≤ 10 nM | 10 to 100 nM
CC1Cc2cc(F)ccc2N1C(=O)C1(C(=O)Nc2ccc(Oc3ccnc4cc(-c5cnn(C)c5)ccc34)cc2)CC1 (stereo not drawn) [Compound 80, 1-(5-Fluoro-2-methyl-2,3-dihydroindole-1-carbonyl)-N-[4-[7-(1-methylpyrazol-4-yl)quinolin-4-yl]oxyphenyl]cyclopropane-1-carboxamide] | > 300 nM | 10 to 100 nM | 100 to 1000 nM
O=C(Nc1ccc(F)cc1)C1(C(=O)Nc2ccc(Oc3ccnc4cc(-c5ccn(C(F)F)n5)ccc34)cc2)CC1 [Compound 84, 1-N-[4-[7-[1-(Difluoromethyl)pyrazol-3-yl]quinolin-4-yl]oxyphenyl]-1-N′-(4-fluorophenyl)cyclopropane-1,1-dicarboxamide] | 10 to 100 nM | 10 to 100 nM | 10 to 100 nM
O=C(Nc1ccc(F)cc1)C1(C(=O)Nc2ccc(Oc3ccnc4cc(-c5cnn(C6CCNCC6)c5)ccc34)cc2)CC1 [Compound 60, 1-N′-(4-Fluorophenyl)-1-N-[4-[7-(1-piperidin-4-ylpyrazol-4-yl)quinolin-4-yl]oxyphenyl]cyclopropane-1,1-dicarboxamide] | 10 to 100 nM | ≤ 10 nM | 10 to 100 nM
Cc1cc(F)cc(C)c1NC(=O)C1(C(=O)Nc2ccc(Oc3ccnc4cc(-c5cnn(C)c5)ccc34)cc2)CC1 [Compound 82, 1-N′-(4-Fluoro-2,6-dimethylphenyl)-1-N-[4-[7-(1-methylpyrazol-4-yl)quinolin-4-yl]oxyphenyl]cyclopropane-1,1-dicarboxamide] | > 300 nM | 10 to 100 nM | 10 to 100 nM
O=C(Nc1ccc(F)cc1)C1(C(=O)Nc2ccc(Oc3ccnc4cc(-c5ccnnc5)ccc34)cc2)CC1 [Compound 28, 1-N′-(4-Fluorophenyl)-1-N-[4-(7-pyridazin-4-ylquinolin-4-yl)oxyphenyl]cyclopropane-1,1-dicarboxamide] | 10 to 100 nM | ≤ 10 nM | 10 to 100 nM
C[Si](C)(C)C#Cc1ccc2c(Oc3ccc(NC(=O)C4(C(=O)Nc5ccc(F)cc5)CC4)cc3)ccnc2c1 [Compound 63, 1-N′-(4-Fluorophenyl)-1-N-[4-[7-(2-trimethylsilylethynyl)quinolin-4-yl]oxyphenyl]cyclopropane-1,1-dicarboxamide] | > 300 nM | 10 to 100 nM | 100 to 1000 nM
O=C(Nc1ccc(F)cc1)C1(C(=O)Nc2ccc(Oc3ccnc4cc(-c5cccnc5)ccc34)cc2)CC1 [Compound 25, 1-N′-(4-Fluorophenyl)-1-N-[4-(7-pyridin-3-ylquinolin-4-yl)oxyphenyl]cyclopropane-1,1-dicarboxamide] | ≤ 10 nM | ≤ 10 nM | 10 to 100 nM
C#Cc1ccc2c(Oc3ccc(NC(=O)C4(C(=O)Nc5ccc(F)cc5)CC4)cc3)ccnc2c1 [Compound 64, 1-N-[4-(7-Ethynylquinolin-4-yl)oxyphenyl]-1-N′-(4-fluorophenyl)cyclopropane-1,1-dicarboxamide] | 100 to 300 nM | ≤ 10 nM | 10 to 100 nM

Other lines, results leading:

IC50 (KDR [1]) | IC50 (Met) | IC50 (KDR [2]) | Structure (SMILES)
10 to 100 nM | ≤ 10 nM | 10 to 100 nM | Cn1nccc1-c1ccc2c(Oc3ccc(NC(=O)C4(C(=O)Nc5ccc(F)cc5)CC4)cc3)ccnc2c1 [Compound 54, 1-N′-(4-Fluorophenyl)-1-N-[4-[7-(2-methylpyrazol-3-yl)quinolin-4-yl]oxyphenyl]cyclopropane-1,1-dicarboxamide]
≤ 10 nM | ≤ 10 nM | 10 to 100 nM | Cn1cnc(-c2ccc3c(Oc4ccc(NC(=O)C5(C(=O)Nc6ccc(F)cc6)CC5)cc4)ccnc3c2)c1 [Compound 69, 1-N′-(4-Fluorophenyl)-1-N-[4-[7-(1-methylimidazol-4-yl)quinolin-4-yl]oxyphenyl]cyclopropane-1,1-dicarboxamide]
10 to 100 nM | 10 to 100 nM | 10 to 100 nM | COCCn1cc(-c2ccc3c(Oc4ccc(NC(=O)C5(C(=O)Nc6ccc(F)cc6)CC5)cc4)ccnc3c2)cn1 [Compound 10, 1-N′-(4-Fluorophenyl)-1-N-[4-[7-[1-(2-methoxyethyl)pyrazol-4-yl]quinolin-4-yl]oxyphenyl]cyclopropane-1,1-dicarboxamide]
≤ 10 nM | ≤ 10 nM | 10 to 100 nM | O=C(Nc1ccc(F)cc1)C1(C(=O)Nc2ccc(Oc3ccnc4cc(-c5ccn[nH]5)ccc34)cc2)CC1 [Compound 68, 1-N′-(4-Fluorophenyl)-1-N-[4-[7-(1H-pyrazol-5-yl)quinolin-4-yl]oxyphenyl]cyclopropane-1,1-dicarboxamide]
100 to 300 nM | 10 to 100 nM | 10 to 100 nM | Cc1noc(C)c1-c1ccc2c(Oc3ccc(NC(=O)C4(C(=O)Nc5ccc(F)cc5)CC4)cc3)ccnc2c1 [Compound 53, 1-N-[4-[7-(3,5-Dimethyl-1,2-oxazol-4-yl)quinolin-4-yl]oxyphenyl]-1-N′-(4-fluorophenyl)cyclopropane-1,1-dicarboxamide]
10 to 100 nM | ≤ 10 nM | 10 to 100 nM | O=C(Nc1ccc(F)cc1)C1(C(=O)Nc2ccc(Oc3ccnc4cc(-c5ncco5)ccc34)cc2)CC1 [Compound 66, 1-N′-(4-Fluorophenyl)-1-N-[4-[7-(1,3-oxazol-2-yl)quinolin-4-yl]oxyphenyl]cyclopropane-1,1-dicarboxamide]
10 to 100 nM | ≤ 10 nM | 10 to 100 nM | CNC(=O)c1cc2c(Oc3ccc(NC(=O)C4(C(=O)Nc5ccc(F)cc5)CC4)cc3)ccnc2cc1-c1cnn(C)c1 [Compound 77, 1-N′-(4-Fluorophenyl)-1-N-[4-[6-(methylcarbamoyl)-7-(1-methylpyrazol-4-yl)quinolin-4-yl]oxyphenyl]cyclopropane-1,1-dicarboxamide]
10 to 100 nM | 10 to 100 nM | 10 to 100 nM | O=C(Nc1ccc(F)cc1)C1(C(=O)Nc2ccc(Oc3ccnc4cc(-c5cnn(C(F)(F)F)c5)ccc34)cc2)CC1 [Compound 12, 1-N′-(4-Fluorophenyl)-1-N-[4-[7-[1-(trifluoromethyl)pyrazol-4-yl]quinolin-4-yl]oxyphenyl]cyclopropane-1,1-dicarboxamide]
10 to 100 nM | ≤ 10 nM | 10 to 100 nM | O=C(Nc1ccc(F)cc1)C1(C(=O)Nc2ccc(Oc3ccnc4cc(-c5cnn(C6CC6)c5)ccc34)cc2)CC1 [Compound 22, 1-N-[4-[7-(1-Cyclopropylpyrazol-4-yl)quinolin-4-yl]oxyphenyl]-1-N′-(4-fluorophenyl)cyclopropane-1,1-dicarboxamide]
≤ 10 nM | ≤ 10 nM | 10 to 100 nM | O=C(Nc1ccc(F)cc1)C1(C(=O)Nc2ccc(Oc3ccnc4cc(-c5cnn(C6COC6)c5)ccc34)cc2)CC1 [Compound 24, 1-N′-(4-Fluorophenyl)-1-N-[4-[7-[1-(oxetan-3-yl)pyrazol-4-yl]quinolin-4-yl]oxyphenyl]cyclopropane-1,1-dicarboxamide]
